One molecule from patent US20110054216A1, “NOVEL PROCESS FOR MAKING (2R)-(3-AMINO-2-FLUOROPROPYL)PHOSPHINIC ACID FORM A” (priority 2007, published 2011) can be followed below.

The nature of this data set: isoelectric point of the zwitterion. The format is physicochemical. Conditions: pH at which it may be crystallised. On the procedure:
(2R)-(3-amino-2-fluoropropyl)phosphinic acid is a zwitterion, that may be crystallised at the isoelectric point, in this case approximately at a pH of 5.3. As the reaction is performed during acidic conditions, the protonated species of (2R)-(3-amino-2-fluoropropyl)phosphinic acid is formed. After completed reaction, the pH is adjusted to 5-6 by addition of a base in order to isolate (2R)-(3-amino-2-fluoropropyl)phosphinic acid crude as the zwitterion. The solution of (2R)-(3-amino-2-fluoropropyl)phosphinic acid works as a buffer solution and the amount of base added to reach the set pH-interval (5-6) is can be varied in the range of from 1.8-2.8 equivalents.

For the molecule `NC[C@@H](F)C[PH](=O)O` [(2R)-(3-amino-2-fluoropropyl)phosphinic acid], the “isoelectric point (pH)” value is given as around 5.3.
